For 68 molecules, pKa results are on record in the pKa sets of Baltruschat and Czodrowski (2020).

By pKa is commonly meant the negative logarithm of the acid dissociation constant. A high value points to a group that holds its proton tightly.

Under “acidic group”, `Cc1cccc(O)c1` gave a pKa of 10.

`O=C(O)c1ccccc1F` yielded a pKa (acidic group) of 3.6. Take `NCCCCCCCC(=O)[O-]`: the pKa (basic group) is 11.

Molecule `NCC(=O)Nc1ccccc1` showed a pKa (basic group) of 8.12. Where the note is “basic group”, `Cc1cc(-c2ccccc2)nn2c(CN3CCOCC3)cnc12` returned a pKa of 6.01. For the setting “basic group”, `O[C@H]1[C@H](O)[C@@H](n2cnc3ccccc32)OC[C@@H]1O` had a pKa of 3.92. On to `Cc1cc(-c2ccccc2)n[n+](C)c1NCCN1CCOCC1`, for which the pKa (basic group) stood at 5.12. Consider `Oc1ccc(Cl)cc1CN1CCCC1`, for which, under “basic group”, the pKa was found to be 11.7.

`CC(C)(N)Cc1ccccc1`: for the setting “basic group”, the pKa was determined as 10.1. As to `NCCCNCCCN`, the pKa (basic group) amounted to 10.7. In turn, `C/C(=C\C=C\C(C)C(=O)[O-])[C@H]1CN[C@H](C(=O)[O-])[C@H]1CC(=O)[O-]` (stereo partly specified) displayed a pKa (basic group) of 9.82.

`CN(C)C(=S)c1ccccc1` yielded a pKa (basic group) of -2.3. Still for that read-out and setting: with `CC(c1ccccc1)N1CC(O[Si](C)(C)C)C1` (stereo unspecified) the figure was 7.82.

Molecule `C/C=C/C=C/C(=O)O` yielded a pKa (acidic group) of 4.53. Take `C1CCCNCC1`: the pKa (basic group) turned out to be 11. `CCCCN[N+](=O)[O-]`: the pKa (acidic group) worked out at 6.48. Consider `C=CC(C)(C)NC(C)(C)C=C`, for which the pKa (basic group) worked out at 10.1.

`NCCCCCCO`: the pKa (basic group) came to 10.6. Where the note is “acidic group”, `Oc1cccc(-c2ccccc2)c1` had a pKa of 9.59. As for `C[n+]1cccc(CC(=O)c2ccccc2)c1`, the pKa (acidic group) came to 11. Regarding `O=C([O-])[C@@H]1O[C@H](Oc2cnc3ccccc3c2)[C@@H](O)[C@H](O)[C@H]1O`, the pKa (basic group) turned out to be 3.95. `CCCCCCN(CCCCCC)c1ccccc1` returned a pKa (basic group) of 4.89. Where the note is “basic group”, `CCN(CC)Cc1ccccc1` came in with a pKa of 9.44. Regarding `Oc1n[nH]c(-c2ccccc2)c1Cc1ccccc1`, the pKa (acidic group) is 7.7.

Regarding `N#CC(C#N)=NNc1ccccc1C(=O)O`, the pKa by setting is: (acidic group) 6.7; (basic group) -0.96. `CCCCCC/[NH+]=C/c1c(C)cnc(C)c1O` gave a pKa (basic group) of 3.39. `C=C(C)C(=O)OCCN(C)CCCC` registered a pKa (basic group) of 8.27. Take `CC(C)NCCC#N`: the pKa (basic group) amounted to 8. As to `CC(=O)C(CN1CCOCC1)c1ccccc1` (stereo unspecified), for the setting “basic group”, the pKa stood at 6.23. Where the note is “acidic group”, `O=C([O-])[C@@H]1CC[C@H](C(=O)O)C1` yielded a pKa of 5.52. For the molecule `O=C(O)c1cc(Cl)cc([N+](=O)[O-])c1`, the pKa (acidic group) is 2.17. For `CC(O)CN(CCO)C(C)(C)C` (stereo unspecified), where the note is “basic group”, the pKa is 9.2.

Regarding `COc1ccc(/N=N/c2ccncc2)cc1`, for the setting “basic group”, the pKa was determined as 4.53. With `CN(C)c1ncc2[nH]cnc2n1`, the pKa was found to be 10.2 (acidic group) and 4.02 (basic group). Molecule `CC(=O)c1ccc([N+](=O)[O-])cc1C(=O)O` displayed a pKa (acidic group) of 3.27. In the case of `O=[N+]([O-])c1ccccc1/C=N/O`, the pKa (acidic group) was found to be 10.1. `C/C=C1/CN2CC[C@]34C(=C(C(=O)OC)[C@H]1C[C@H]23)Nc1ccccc14` showed a pKa (basic group) of 7.46. With `CCCCSC1=NCCN1`, under “basic group”, the pKa came out at 9. The same measure, in the same setting: with `CCC(N)(CO)CO` the figure was 8.8. Turning to `[O-]C(O)=C1c2ccccc2-c2ccccc21`, the pKa (acidic group) was 9.61. `CC(C)Cc1ccc(O)c(CN(C)C)c1`: the pKa (basic group) is 8.51. Regarding `N#Cc1c[nH+]c2ccccc2c1O`, where the note is “acidic group”, the pKa was -2.08. Take `Cc1cc([O-])nc([O-])[n+]1C`: where the note is “basic group”, the pKa was 10.1.

In turn, `CC(=O)OCC1CC2CCN1CC2` (stereo unspecified) displayed a pKa (basic group) of 9.88. `NCC(=O)c1ccc(O)cc1` came in with a pKa (basic group) of 8.05. As to `O=C(O)c1ccc([N+](=O)[O-])cc1Cl`, where the note is “acidic group”, the pKa turned out to be 1.96. Consider `C[C@H]1[C@@H](N)[C@@H](C)[C@@H](N)[C@@H](C)[C@H]1N`, for which the pKa (basic group) came to 7.83. Regarding `Brc1ccc([P+](c2ccccc2)(c2ccccc2)C2c3ccccc3-c3ccccc32)cc1`, the pKa (acidic group) stood at 8.67. `Cc1cc(N)nc2c1ccc1ccccc12` yielded a pKa (basic group) of 6.02. `Nc1ccc(-c2cnc(-c3ccccc3)o2)cc1` displayed a pKa (basic group) of 3.68. Still for that read-out and setting: with `N/C(CC/C(N)=[NH+]/O)=N\O` the figure was 3.11.

Regarding `Cc1cccc(Cl)c1O`, for the setting “acidic group”, the pKa was determined as 8.7.

Consider `CC(=O)c1cc([N+](=O)[O-])ccc1C(=O)O`, for which the pKa (acidic group) was found to be 3.06. `c1c[nH]c(Cc2ncc[nH]2)n1` returned a pKa (basic group) of 7.27. For the setting “acidic group”, `O=S(=O)([O-])c1ccc(O)c2[nH]ncc12` displayed a pKa of 7.6. The same measure, in the same setting: the result for `CCOC(=O)c1c[nH+]c2cc([N+](=O)[O-])ccc2c1O` reads 4.1; that for `C[N+](C)(C)Cc1ccc(O)cc1`, 8.75. Consider `Nc1ccncn1`, for which the pKa is, setting by setting: (acidic group) 18.4; (basic group) 5.7. Under “acidic group”, `C[NH+](C)CCc1cccc(O)c1` had a pKa of 9.24. Take `O=C(O)c1ccc[nH+]c1[O-]`: under “acidic group”, the pKa worked out at 5.28. As to `CC1=Nc2ccc([N+](=O)[O-])cc2[NH+]=C(C)C1`, under “basic group”, the pKa worked out at 2.2.

`N=C1CCCC1` gave a pKa (basic group) of 8.95. Consider `CCO[C@H]1C[C@@H]1C(=O)O`, for which the pKa (acidic group) turned out to be 4.46.

The molecule `Cc1cccc2oc(=O)cc(O)c12` yielded a pKa (acidic group) of 4.2.

In turn, `O=C([O-])c1cc(O)c(O)c(C(=O)[O-])[o+]1` gave a pKa (acidic group) of 9.82. In the case of `CC(CN(C)C)N(C)C` (stereo unspecified), the pKa (basic group) came to 9.49. Same read-out and setting: the result for `Nc1ncnc2ccccc12` reads 5.79; that for `CCOc1ccc(/N=C/N(C)C)cc1`, 9.24.
